Square brackets hold non-standard residues; d marks the D form. Peptide text beside a SMILES is read from it.
How the values were obtained:
[1] = tested on: recombinant JNK1, JNK2 and JNK3; test: Solid phase kinase assay: JNK-mediated phosphorylation of c-Jun, ATF2 and Elk1; assay type: biochemical; conditions: GST-Jun (aa 1-73), 0-250 μM dosage study; fold less efficient
Method: The effects of the peptides on JNKs-mediated phosphorylation of their target transcription factors were investigated in vitro. Recombinant and non activated JNK1, JNK2 and JNK3 were produced using a TRANSCRIPTION AND TRANSLATION rabbit reticulocyte lysate kit (PROMEGA®) and used in solid phase kinase assays with c-jun, ATF2 and Elk1, either alone or fused to glutathione-S-transferase (GST), as substrates. Dose response studies were performed wherein inventive L-TAT or L-TAT-IB1(s) peptides (0-25 μM) were mixed with the recombinant JNK1, JNK2, or JNK3 kinases in reaction buffer (20 mM Tris-acetate, 1 mM EGTA, 10 mM p-nitrophenyl-phosphate (pNPP), 5 mM sodium pyrophosphate, 10 mM p-glycerophosphate, 1 mM dithiothreitol) for 20 minutes. The kinase reactions were then initiated by the addition of 10 mM MgCl2 and 5 pCi^33P-γ-dATP and 1 μg of either GST-Jun (aa 1-89), GST-AFT2 (aa 1-96) or GST-ELK1 (aa 307-428). GST-fusion proteins were purchased from Stratagene (La Jolla, Calif.).
Ten μL of glutathione-agarose beads were also added to the mixture. Reaction products were then separated by SDS-PAGE on a denaturing 10% polyacrylamide gel. Gels were dried and subsequently exposed to X-ray films (Kodak).
The ability of D-TAT, inventive D-TAT-IB1(s) and inventive L-TAT-IB1 (s) peptides (0-250 μM dosage study) to inhibit GST-Jun (aa 1-73) phosphorylation by recombinant JNK1, JNK2, and JNK3 by were analyzed as described above. Overall, D-TAT-IB1(s) peptide decreased JNK-mediated phosphorylation of c-Jun, but at levels approximately 10-20 fold less efficiently than L-TAT-IB1(s).

12-days-old rats = test: Neuroprotection against focal cerebral ischemia, permanent MCAO model; assay type: in vivo
From the text: Focal cerebral ischemia was induced in 12-days-old rats. Pups were anesthetized in an induction chamber with 2% isoflurane and during the operation anaesthesia was maintained using a mask under 2% isoflurane. MCAO was induced by electrocoagulating a main branch of the middle cerebral artery (MCA). Rats were placed on the right side, and an oblique dermal incision was made between the ear and eye. After excision of the temporal muscle, the cranial bone was removed from the frontal suture to a level below the zygomatic arch. […] The cranial skin incision was then closed. Rat pups were then placed in an incubator maintained at 37° C. until they awoke, and were then transferred to their mother.
6 hours later an inventive chimeric D-TAT-IB1(s) peptide according to SEQ ID NO: 11 was injected intraperitoneally. 24 hours after the coagulation, the rats were anesthetized with chloral hydrate and perfused through the ascending aorta with 4% paraformaldehyde in PBS. Brains were then removed and kept for 2 hours in the same fixative solution, and placed in a gradient of 30% sucrose in PBS for about 15 hours at 4° C. Brains were frozen in isopentane (−40° C.) and stored at −20° C. Coronal cryostat sections of 50 μm were collected on glass slides. The sections were stained with cresyl violet. Each tenth section was analyzed and the total volume of the lesion was calculated using the Neuroleucida programme. In the control group A, the mean lesion volume was 21.47 mm^3. […] A significant statistic difference is observed between group A and groups C, E and F (one-tailed t-test, p=0.030, p=0.002, p=0.001 respectively).

[2] = tested on: endogenous JNK activity in HepG2 cells; test: Inhibition of endogenous JNK activity in HepG2 cells, AlphaScreen all-in one well approach; assay type: cell-based
Method: HepG2 cells were seeded at 3'000 cells/well the day prior the experiment. Then, increasing concentrations of either interleukin-1β [IL-1β(ν)] or tumor necrosis factor α [TNFα(●)] (a) were added to activate JNK for 30 minutes. Cells were lysed in 20 mM Hepes, 0.5% Tween pH 7.4 and processed for AlphaScreen JNK. (b) Z′ for the JNK activity induced by 10 ng/ml IL-1β and measured in 384 wells/plate (n=96). (c) Inhibition of endogenous IL-1β-induced JNK activity with chemical JNK inhibitors [staurosporin (°) and SP600125 (●)]. (d) Effect of peptidic inhibitors L-TAT-IB1(s) according to SEQ ID NO: 9 [here abbreviated as L-JNKi (ν)) and D-TAT-IB1(s) according to SEQ ID NO: 11 (here abbreviated as D-JNKi (♦)) and JBDs (●) (corresponds to L-JNKI without the TAT sequence)] on IL-1α dependent JNK activity. All panels are representative of three independent experiments (n=3).
Methods: Alphascreen Kinase Assay
Principle: AlphaScreen is a non-radioactive bead-based technology used to study biomolecular interactions in a microplate format. The acronym ALPHA stands for Amplified Luminescence Proximity Homogenous Assay. […]
Kinase reagents (B-GST-cJun, anti P-cJun antibody and active JNK3) were first diluted in kinase buffer (20 mM Tris-HCl pH 7.6, 10 mM MgCl2, 1 mM DTT, 100 μM Na3VO4, 0.01% Tween-20) and added to wells (15 μl). […] AlphaScreen signal was analyzed directly on the Fusion or En Vision apparatus.

CC(C)C[C@@H](NC(=O)[C@@H](Cc1ccccc1)NC(=O)[C@H]1CCCN1C(=O)[C@@H](CCC(N)=O)NC(=O)[C@H](NC(=O)[C@H]1CCCN1C(=O)[C@@H](CCCNC(=N)N)NC(=O)[C@@H](CO)NC(=O)[C@@H](CCC(N)=O)NC(=O)[C@H](N)CC(=O)O)C(C)C)C(=O)N[C@H](CC(N)=O)C(=O)N[C@H](CC(C)C)C(=O)N[C@@H](C(=O)N[C@@H](C(=O)N1CCC[C@@H]1C(=O)N[C@H](CCCNC(=N)N)C(=O)N[C@H](CCCCN)C(=O)N1CCC[C@@H]1C(=O)N[C@H](CCCNC(=N)N)C(=O)N1CCC[C@@H]1C(=O)N1CCC[C@@H]1C(=O)N[C@H](CCCNC(=N)N)C(=O)N[C@H](CCCNC(=N)N)C(=O)N[C@H](CCCNC(=N)N)C(=O)N[C@H](CCC(N)=O)C(=O)N[C@H](CCCNC(=N)N)C(=O)N[C@H](CCCNC(=N)N)C(=O)N[C@H](CCCCN)C(=O)N[C@H](CCCCN)C(=O)N[C@H](CCCNC(=N)N)C(=O)NCC(=O)O)[C@H](C)O)[C@H](C)O [D-TAT-IB1(s)] (H-[dD][dQ][dS][dR][dP][dV][dQ][dP][dF][dL][dN][dL][dT][dT][dP][dR][dK][dP][dR][dP][dP][dR][dR][dR][dQ][dR][dR][dK][dK][dR]G-OH)
decrease of JNK-mediated phosphorylation of c-Jun, efficiency relative to L-TAT-IB1(s) [1]: 10-20 fold | cerebral protection compared to saline group (12-days-old rats; dose of 1 mg/kg, 0.003 mg/kg and 0.0003): total sample was not large enough to reach a significant difference | cerebral protection (12-days-old rats; dose of 11 mg/kg, 3 mg/kg, 0.3 mg/kg and 0.03 mg/kg i.p.): contributes to a cerebral protection | dose at which the best protection is observed (12-days-old rats; i.p. 6 hours after MCAO): 0.03 mg/kg | mean lesion volume versus control group (12-days-old rats; i.p. 6 hours after MCAO, analysis at 24 hours, all treated groups): lower mean than the control group | inhibition of IL-1β-induced endogenous JNK activity [2]: effectively inhibits JNK activity, even better than L-TAT-IB1(s)

Source: patent US8748395B2, “Cell-permeable peptide inhibitors of the JNK signal transduction pathway” (Xigen Inflammation Ltd., priority 2006, dated 2014)
